Source: patent US20250059162A1, “MULTI-PROTEIN DEGRADATION AGENT HAVING IMIDE SKELETON” (SUZHOU KINTOR PHARMACEUTICALS, INC., priority 2021, published 2025)

Test system: HL60 cells
Assay: Anti-proliferation on HL60 cells (CellTiter-Glo, 3 days)
Type: cell-based
Settings: Homo sapiens, HL-60, 72 h, 3 days incubation, CTG luminescence, IC50 by XLfit, read-out: HL60 cells Proliferation inhibitory activity
Description: HL60 cells (Cell Bank of Chinese Academy of Sciences) in the logarithmic growth phase were counted and plated evenly in a 96-well transparent bottom white plate at 20000 cells per well and 100 μL per well.
A certain amount of the compound of the present invention was weighed and diluted with DMSO to a 10 mM stock solution. The culture medium RPMI-1640 (meilunbio, MA0215) corresponding to the cells were taken, and the compound was diluted to the concentration required by the test, shaken gently and mixed evenly. 50 μL of the gradient dilution of the diluted compound was added to each well of the plated cells, and 50 μL of 0.1% DMSO was added to the control group. The plate was shaken gently, mixed evenly and incubated in a cell culture incubator for 3 days.
• 3.1 The CellTiter-Glo™ (CTG) (purchased from Promega, Cat. No. G9242) reagent was taken in advance from the −20° C. refrigerator and equilibrated to room temperature in the dark. Cell Titer-Glo buffer and Cell Titer-Glo substrate were mixed at a ratio of 1:1 to prepare a CTG detection reagent. • 3.2 The 96-well plate was taken out and inspected under a microscope for growth. • 3.3 The bottom of the 96-well plate was tagged with white paper, and then the plate was wrapped with tin foil paper, shaken at 37° C. at 300 r for 10 min and mixed evenly. • 3.4. 50 μL of CTG detection reagent was added to each well, Luminescence signal was detected using a microplate reader Biotek Synergy Hi, and the inhibition rate was calculated. IC50 values of the compounds were calculated by XLfit 5.5.0 software to evaluate the proliferation inhibitory activity on HL60 cells.

IC50 [nM] | Compound
1.5 | O=C1CCC(N2Cc3cc(CNCC4CCN(c5ncc(-c6cc(F)cc(Cl)c6)cc5C(F)(F)F)CC4)ccc3C2=O)C(=O)N1 (centres unmarked) [Compound A115]
< 0.2 | O=C1CCC(N2Cc3cc(NC(=O)CC4CCN(c5ncc(-c6ccccc6)cn5)CC4)ccc3C2=O)C(=O)N1 (centres unmarked) [Compound A51]
1100 | O=C1CCC(NC(=O)c2ccc(CNCC3CCN(c4ncc(-c5cccc(Cl)c5)cc4C(F)(F)F)CC3)c(Br)c2)C(=O)N1 (centres unmarked) [Compound A160]
1.4 | O=C1CCC(N2Cc3cc(C(=O)NCC4CCN(c5ncc(-c6cccc(Cl)c6)cn5)CC4)ccc3C2=O)C(=O)N1 (centres unmarked) [Compound A52]
11600 | O=C1CCC(n2c(C3CC3)nc3cc(CNCC4CCN(c5ncc(-c6cccc(Cl)c6)cc5C(F)(F)F)CC4)ccc3c2=O)C(=O)N1 (centres unmarked) [Compound A153]
20.5 | O=C1CCC(N2Cc3cc(CNCC4CCN(c5ccc(-c6cccc(Cl)c6)cc5C(F)(F)F)CC4)ccc3C2=O)C(=O)N1 (centres unmarked) [Compound A104]
120 | O=C1CCC(N2Cc3cc(CNCC4CCN(c5ncc(-n6c7ccccc7c7ccccc76)cc5C(F)(F)F)CC4)ccc3C2=O)C(=O)N1 (centres unmarked) [Compound A129]
9370 | O=C1C[C@@H](N2Cc3cc(CNCC4CCN(c5ncc(-c6cccc(F)c6)cc5C(F)(F)F)CC4)ccc3C2=O)C(=O)N1 [Compound A173]
< 0.2 | O=C1CCC(N2Cc3cc(C(=O)NCC4CCN(c5ccc(-c6nccc7ccccc67)cn5)CC4)ccc3C2=O)C(=O)N1 (centres unmarked) [Compound A45]
< 0.2 | O=C1CCC(N2Cc3cc(NC(=O)CC4CCN(c5ccc(-c6cccc7ccccc67)cn5)CC4)ccc3C2=O)C(=O)N1 (centres unmarked) [Compound A35]
175 | O=C1CCC(N2Cc3cc(OCCC4CCN(c5ncc(-c6cccc(Cl)c6)cc5C(F)(F)F)CC4)ccc3C2=O)C(=O)N1 (centres unmarked) [Compound A133]
10.9 | O=C1CCC(N2Cc3cc(CNCC4CCN(c5cc(F)c(-c6cccc(Cl)c6)cn5)CC4)ccc3C2=O)C(=O)N1 (centres unmarked) [Compound A101]
6 | O=C1CCC(N2Cc3cc(NC(=O)CC4CCN(CC(=O)Nc5cccc6ccccc56)CC4)ccc3C2=O)C(=O)N1 (centres unmarked) [Compound A9]
4.69 | COc1cccc(-c2cnc(N3CCC(F)(CNCc4ccc5c(c4)CN(C4CCC(=O)NC4=O)C5=O)CC3)c(C(F)(F)F)c2)c1 (centres unmarked) [Compound A121]
58 | O=C1CCC(N2Cc3cc(C(=O)NCC4CCN(C(=O)NCCn5c6ccccc6c6cccnc65)CC4)ccc3C2=O)C(=O)N1 (centres unmarked) [Compound A2]
5210 | Cn1nc(N2CCC(=O)NC2=O)c2cc(CNCC3CCN(c4ncc(-c5cccc(Cl)c5)cc4C(F)(F)F)CC3)ccc21 [Compound A176]
0.3 | O=C1CCC(N2Cc3cc(NC(=O)CC4CCN(c5cnc(-c6cccc7ccccc67)nc5)CC4)ccc3C2=O)C(=O)N1 (centres unmarked) [Compound A33]
6660 | O=C1CCC(NC(=O)c2ccc(CNCC3CCN(c4ncc(-c5cccc(Cl)c5)cc4C(F)(F)F)CC3)cc2F)C(=O)N1 (centres unmarked) [Compound A158]
1 | O=C1CCC(N2Cc3cc(NC(=O)CC4CCN(c5cccc(-c6cccc7ccccc67)n5)CC4)ccc3C2=O)C(=O)N1 (centres unmarked) [Compound A15]
9560 | O=C1CCC(NCc2ccc(CNCC3CCN(c4ncc(-c5cccc(Cl)c5)cc4C(F)(F)F)CC3)cc2)C(=O)N1 (centres unmarked) [Compound A165]
0.54 | Cc1ccc(N2CCN(Cc3ccc(C(=O)NCc4ccc5c(c4)CN(C4CCC(=O)NC4=O)C5=O)cc3)CC2)cc1Cl (centres unmarked) [Compound A130]
5 | O=C1CCC(N2Cc3cc(C(=O)NCC4CCN(c5ccc(-c6cccc7cccnc67)nc5)CC4)ccc3C2=O)C(=O)N1 (centres unmarked) [Compound A44]
1.09 | COc1cccc(-c2cnc(N3CCC(F)(C(=O)NCc4ccc5c(c4)CN(C4CCC(=O)NC4=O)C5=O)CC3)c(F)c2)c1 (centres unmarked) [Compound A119]
192 | O=C(CN1CCC(CNC(=O)c2ccc3c(c2)CN(C2CCC(=O)NC2=O)C3=O)CC1)NCc1cccc2ccccc12 (centres unmarked) [Compound A6]
2.47 | COc1cccc(-c2cnc(N3CCC(F)(CNCc4ccc5c(c4)CN(C4CCC(=O)NC4=O)C5=O)CC3)c(F)c2)c1 (centres unmarked) [Compound A120]
17.7 | O=C1CCC(N2Cc3c(ccc(CNCC4CCN(c5ncc(-c6cccc(Cl)c6)cc5C(F)(F)F)CC4)c3F)C2=O)C(=O)N1 (centres unmarked) [Compound A139]
825 | O=C1CCC(NC(=O)c2ccc(CNCC3CCN(c4ncc(-c5cccc(Cl)c5)cc4C(F)(F)F)CC3)cc2)C(=O)N1 (centres unmarked) [Compound A155]
752 | COc1cccc(-c2cnc(N3CCC(CNCc4scc5c4CN(C4CCC(=O)NC4=O)C5=O)CC3)c(C(F)(F)F)c2)c1 (centres unmarked) [Compound A144]

IC50 [nM] | Compound
1.76 | O=C1CCC(N2Cc3cc(CNCC4(F)CCN(c5ncc(-c6cccc(F)c6)cc5F)CC4)ccc3C2=O)C(=O)N1 (centres unmarked) [Compound A122]
2670 | O=C1CCC(NC(=O)c2ccc(C(=O)NCC3CCN(c4ncc(-c5cccc(Cl)c5)cc4C(F)(F)F)CC3)cc2)C(=O)N1 (centres unmarked) [Compound A166]
2.9 | O=C1CCC(N2Cc3cc(C(=O)NCC4CCN(c5cccc(-c6cccc7ccccc67)c5)CC4)ccc3C2=O)C(=O)N1 (centres unmarked) [Compound A21]
9990 | O=C1C[C@H](N2Cc3cc(CNCC4CCN(c5ncc(-c6cccc(F)c6)cc5C(F)(F)F)CC4)ccc3C2=O)C(=O)N1 [Compound A172]
3040 | O=C1CCC(N2Cc3c(csc3CNCC3CCN(c4ncc(-c5cccc(Cl)c5)cc4C(F)(F)F)CC3)C2=O)C(=O)N1 (centres unmarked) [Compound A143]
< 0.2 | O=C1CCC(N2Cc3cc(NC(=O)CC4CCN(c5ccc(-c6cccc(Cl)c6)nc5)CC4)ccc3C2=O)C(=O)N1 (centres unmarked) [Compound A57]
3 | COc1cc(Cl)cc(-c2cnc(N3CCC(CNCc4ccc5c(c4)CN(C4CCC(=O)NC4=O)C5=O)CC3)c(C(F)(F)F)c2)c1 (centres unmarked) [Compound A113]
0.8 | O=C1CCC(N2Cc3cc(CNCC4CCN(c5ncc(-c6cccc(Cl)c6)cc5F)CC4(F)F)ccc3C2=O)C(=O)N1 (centres unmarked) [Compound A88]
878 | O=C1CCC(N2Cc3cc(CNCC4CCN(c5ncc(-c6ccccn6)cc5F)CC4)ccc3C2=O)C(=O)N1 (centres unmarked) [Compound A106]
0.2 | O=C1CCC(N2Cc3cc(NC(=O)CC4CCN(c5ccc(-c6ccc7ccccc7c6)cn5)CC4)ccc3C2=O)C(=O)N1 (centres unmarked) [Compound A41]
25.7 | O=C1CCC(N2Cc3cc(CCCN4CCN(c5ncc(-c6cccc(Cl)c6)cc5C(F)(F)F)CC4)ccc3C2=O)C(=O)N1 (centres unmarked) [Compound A135]
9.04 | O=C1CC[C@@H](N2Cc3cc(CNCC4(F)CCN(c5ncc(-c6cccc(Cl)c6)cc5C(F)(F)F)CC4)ccc3C2=O)C(=O)N1 [Compound A128]
14 | O=C(CN1CCC(CC(=O)Nc2ccc3c(c2)CN(C2CCC(=O)NC2=O)C3=O)CC1)NCCn1c2ccccc2c2cccnc21 (centres unmarked) [Compound A8]
< 0.2 | O=C1CCC(N2Cc3cc(NC(=O)CC4CCN(c5ncc(-c6cccc7cccc(F)c67)s5)CC4)ccc3C2=O)C(=O)N1 (centres unmarked) [Compound A26]
94 | O=C(CN1CCC(CNC(=O)c2ccc3c(c2)CN(C2CCC(=O)NC2=O)C3=O)CC1)NCCn1c2ccccc2c2cccnc21 (centres unmarked) [Compound A7]
8520 | O=C1CCC(c2cn3cc(CNCC4CCN(c5ncc(-c6cccc(Cl)c6)cc5C(F)(F)F)CC4)ccc3n2)C(=O)N1 (centres unmarked) [Compound A148]
12 | O=C1CCC(N2Cc3cc(NC(=O)CC4CCN(c5ccc(-c6cccc7ccccc67)nn5)CC4)ccc3C2=O)C(=O)N1 (centres unmarked) [Compound A32]
4.3 | O=C1CCC(N2Cc3cc(C(=O)NCC4CCN(c5ccc(-c6ccc7ccccc7c6)cn5)CC4)ccc3C2=O)C(=O)N1 (centres unmarked) [Compound A40]
2.6 | O=C1CCC(N2Cc3cc(C(=O)NCC4CCN(c5ncc(-c6ccc7ccccc7c6)cn5)CC4)ccc3C2=O)C(=O)N1 (centres unmarked) [Compound A39]
36.1 | O=C1CCC(N2Cc3cc(CNCC4C5CCC4CN(c4ncc(-c6cccc(Cl)c6)cc4C(F)(F)F)C5)ccc3C2=O)C(=O)N1 (centres unmarked) [Compound A91]
3.7 | O=C1CCC(N2Cc3cc(C(=O)NCC4CCN(c5ncc(-c6cccc7ccccc67)o5)CC4)ccc3C2=O)C(=O)N1 (centres unmarked) [Compound A27]
39 | O=C1CCC(N2Cc3cc(NC(=O)CC4CCN(C(=O)Cn5c6ccccc6c6cccnc65)CC4)ccc3C2=O)C(=O)N1 (centres unmarked) [Compound A11]
12300 | O=C1CCC(n2nc3cc(CNCC4CCN(c5ncc(-c6cccc(F)c6)cc5F)CC4)ccn3c2=O)C(=O)N1 (centres unmarked) [Compound A147]
11700 | O=C1CCC(NC(=O)c2ccc(CNCC3CCN(c4ncc(-c5cccc(Cl)c5)cc4C(F)(F)F)CC3)nc2)C(=O)N1 (centres unmarked) [Compound A157]
0.9 | O=C1CCC(N2Cc3cc(C(=O)NCC4CCN(c5cccc(-c6cccc7ccccc67)n5)CC4)ccc3C2=O)C(=O)N1 (centres unmarked) [Compound A14]
1.5 | O=C1CCC(N2Cc3cc(C(=O)NCC4CCN(c5cc(-c6cccc7ccccc67)ccn5)CC4)ccc3C2=O)C(=O)N1 (centres unmarked) [Compound A16]
7230 | O=C1CCC(NS(=O)(=O)c2ccc(CNCC3CCN(c4ncc(-c5cccc(Cl)c5)cc4C(F)(F)F)CC3)cc2)C(=O)N1 (centres unmarked) [Compound A164]

Compound | IC50 [nM]
O=C1CCC(N2Cc3cc(CNCC4CC5CCC(C4)N5c4ncc(-c5cccc(Cl)c5)cc4C(F)(F)F)ccc3C2=O)C(=O)N1 (centres unmarked) [Compound A90] | 45.6
